Results reported in US20250145585A1, “HETEROCYCLIC INHIBITORS OF IGF-1R FOR TREATMENT OF DISEASE” (HORIZON THERAPEUTICS IRELAND DAC, priority 2023, published 2025).
pIC50: −log10 of the molar value.

Target: T1, IGF-1R (Homo sapiens, UniProt P08069)
T1 construct: expressed in transfected cells
Assay: Example B-1: IGF-1R Assay (PC3 cells stimulated with IGF1, AlphaLISA on cell lysates)
Type: cell-based
Settings: compound two hours, IGF1 200 ng/mL for 30 min, read-out: IC50, Biological Activity against IGF-1R (Table B1)
Method: 50K PC3 cells were seeded on day 1 in 50 μL of media in 96-well plate and incubated overnight at 37° C., 5% CO2. On day 2, all cells were expected to be at 80-90% confluency. Cells were starved for two hours by changing the media to 90 μL of EMEM serum-free media and incubated for 2 hours. Next, cells were treated with 10 μL of 10× concentrated and 3× serially diluted compounds for two hours. It makes 1× of compounds in 100 μL media. This was followed by stimulation of cells with 11×IGF1 for 30 min in 10 μL of serum-free EMEM media at the final concentration of 200 ng/mL.
The media was removed and replaced by 50 μL of 1× lysis buffer from the AlphaLISA kit (with 1× of cOmplete™ protease inhibitor). The plates were sealed, and cells were allowed to lyse for 10 min in the shaker before storing the plate at −20° C. until used. The AlphaLISA assay with processed cell lysates were performed as described in the protocol. Briefly, 10 μL of the undiluted sample were loaded to 384 well Optiplates and 5 μL of the acceptor mix (as described in the AlphaLISA kit) was added to each well. The plates were sealed and briefly vortexed followed by the incubation at RT for 3 hours. In the dark, 5 μL of donor mix was added to each well. All plates were sealed and stored at RT overnight. The plates were read in EnVision reader using standard AlphaLISA settings.
Compound activity was analyzed using CBIS data analysis suite (Cheminnovation, CA). Percentage inhibition was calculated using the following formula: % I-hibition=100%×(1−(mea−RLU of test sample−mean RLU of vehicle control)/(mean-RLU of EC80 control−mean RLU of vehicle control)). The activity for representative examples of the invention is shown in the following table, wherein A: IC50≤500 nM; B: 500 nM<IC50≤2 μM; C: 2 μM<IC50≤10 μM; D: IC50>10 μM.

T1 sequence (P08069 31-1367): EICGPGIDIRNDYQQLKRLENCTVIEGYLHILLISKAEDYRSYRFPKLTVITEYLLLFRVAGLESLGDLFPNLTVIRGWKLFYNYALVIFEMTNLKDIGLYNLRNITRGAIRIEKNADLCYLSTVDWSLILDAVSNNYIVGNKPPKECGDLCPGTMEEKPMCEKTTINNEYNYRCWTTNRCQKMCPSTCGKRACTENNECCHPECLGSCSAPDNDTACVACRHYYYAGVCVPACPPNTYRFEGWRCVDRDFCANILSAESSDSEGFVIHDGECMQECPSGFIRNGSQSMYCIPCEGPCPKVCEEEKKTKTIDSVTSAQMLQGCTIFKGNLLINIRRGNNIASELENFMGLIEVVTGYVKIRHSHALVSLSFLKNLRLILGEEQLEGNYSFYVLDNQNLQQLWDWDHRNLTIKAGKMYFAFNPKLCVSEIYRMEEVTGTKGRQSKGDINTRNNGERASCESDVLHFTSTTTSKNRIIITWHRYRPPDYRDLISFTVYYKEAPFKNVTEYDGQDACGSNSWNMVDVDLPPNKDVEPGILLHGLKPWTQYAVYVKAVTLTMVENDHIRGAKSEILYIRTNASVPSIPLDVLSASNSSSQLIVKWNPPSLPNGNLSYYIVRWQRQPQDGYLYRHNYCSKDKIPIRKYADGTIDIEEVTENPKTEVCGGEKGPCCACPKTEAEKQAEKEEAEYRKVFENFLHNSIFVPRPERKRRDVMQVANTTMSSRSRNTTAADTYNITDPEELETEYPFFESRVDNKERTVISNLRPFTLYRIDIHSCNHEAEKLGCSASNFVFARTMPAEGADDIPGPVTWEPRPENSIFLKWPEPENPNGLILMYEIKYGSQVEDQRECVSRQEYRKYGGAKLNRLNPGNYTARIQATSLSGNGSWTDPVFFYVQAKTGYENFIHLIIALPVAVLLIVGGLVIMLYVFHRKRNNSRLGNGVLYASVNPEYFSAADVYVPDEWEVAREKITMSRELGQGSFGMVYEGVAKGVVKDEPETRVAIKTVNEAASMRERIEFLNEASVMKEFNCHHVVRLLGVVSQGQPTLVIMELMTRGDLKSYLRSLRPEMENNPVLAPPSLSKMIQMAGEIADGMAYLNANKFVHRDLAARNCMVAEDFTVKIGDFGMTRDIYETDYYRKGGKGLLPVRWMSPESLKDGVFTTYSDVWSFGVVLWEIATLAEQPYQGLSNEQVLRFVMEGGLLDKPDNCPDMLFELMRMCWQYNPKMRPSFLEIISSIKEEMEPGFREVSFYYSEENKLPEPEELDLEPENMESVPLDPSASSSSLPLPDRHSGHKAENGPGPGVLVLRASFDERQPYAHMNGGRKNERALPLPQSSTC

Structure (SMILES)	pIC50
CC(C)Nc1cc(CN2C(=O)N(c3ccc([Si](C)(C)C)cc3)C(=O)C2(C)C)ccn1 [Compound 89, 1-((2-(isopropylamino)pyridin-4-yl)methyl)-5,5-dimethyl-3-(4-(trimethylsilyl)phenyl)imidazolidine-2,4-dione]	≥ 6.30
CC1(c2ccc(N3C(=O)N(Cc4ccnc(N)c4)C(C)(C)C3=O)cc2)COC1 [Compound 90, 1-((2-aminopyridin-4-yl)methyl)-5,5-dimethyl-3-(4-(3-methyloxetan-3-yl)phenyl)imidazolidine-2,4-dione]	5.70 to 6.30
CC1(C)C(=O)N(c2ccc(C(F)(F)F)cc2)C(=O)N1Cc1ccnc(N)c1 [Compound 91, 1-((2-aminopyridin-4-yl)methyl)-5,5-dimethyl-3-(4-(trifluoromethyl)phenyl)imidazolidine-2,4-dione]	5.00 to 5.70
CC(C)Nc1cc(CN2C(=O)N(c3ccc(I)cc3)C(=O)C2(C)C)ccn1 [Compound 92, 3-(4-iodophenyl)-1-((2-(isopropylamino)pyridin-4-yl)methyl)-5,5-dimethylimidazolidine-2,4-dione]	5.70 to 6.30
CC1(C)C(=O)N(c2ccc(CC(F)(F)F)cc2)C(=O)N1Cc1ccnc(N)c1 [Compound 94, 1-((2-aminopyridin-4-yl)methyl)-5,5-dimethyl-3-(4-(2,2,2-trifluoroethyl)phenyl)imidazolidine-2,4-dione]	≥ 6.30
CC1(C)C(=O)N(c2ccc(C(C)(C)C(F)(F)F)cc2)C(=O)N1Cc1ccnc(N)c1 [Compound 95, 1-((2-aminopyridin-4-yl)methyl)-5,5-dimethyl-3-(4-(1,1,1-trifluoro-2-methylpropan-2-yl)phenyl)imidazolidine-2,4-dione]	≥ 6.30
CC(C)Nc1cc(CN2C(=O)N(c3ccc([C@H]4C[C@@H]4F)cc3)C(=O)C2(C)C)ccn1 [Compound 96, 3-(4-((1R,2S)-2-fluorocyclopropyl)phenyl)-1-((2-(isopropylamino)pyridin-4-yl)methyl)-5,5-dimethylimidazolidine-2,4-dione]	5.70 to 6.30
CC(C)Nc1cc(CN2C(=O)N(c3ccc(C4(F)CC4)cc3)C(=O)C2(C)C)ccn1 [Compound 99, 3-(4-(1-fluorocyclopropyl)phenyl)-1-((2-(isopropylamino)pyridin-4-yl)methyl)-5,5-dimethylimidazolidine-2,4-dione]	5.70 to 6.30
CC1(C)C(=O)N(c2ccc(C3(CO)CC3)cc2)C(=O)N1Cc1ccnc(N)c1 [Compound 100, 1-((2-aminopyridin-4-yl)methyl)-3-(4-(1-(hydroxymethyl)cyclopropyl)phenyl)-5,5-dimethylimidazolidine-2,4-dione]	5.70 to 6.30
CC(C)Nc1cc(CN2C(=O)N(c3ccc(C4(C)CCC4)cc3)C(=O)C2(C)C)ccn1 [Compound 101, 1-((2-(isopropylamino)pyridin-4-yl)methyl)-5,5-dimethyl-3-(4-(1-methylcyclobutyl)phenyl)imidazolidine-2,4-dione]	≥ 6.30
CC(C)Nc1cc(CN2C(=O)N(c3ccc(C4CC(F)(F)C4)cc3)C(=O)C2(C)C)ccn1 [Compound 102, 3-(4-(3,3-difluorocyclobutyl)phenyl)-1-((2-(isopropylamino)pyridin-4-yl)methyl)-5,5-dimethylimidazolidine-2,4-dione]	5.70 to 6.30
CC1(C)C(=O)N(c2ccc(C3(C(F)(F)F)CC3)cc2)C(=O)N1Cc1ccnc(NCC(F)F)c1 [Compound 103, 1-((2-((2,2-difluoroethyl)amino)pyridin-4-yl)methyl)-5,5-dimethyl-3-(4-(1-(trifluoromethyl)cyclopropyl)phenyl) imidazolidine-2,4-dione]	≥ 6.30
COC[C@H](C)Nc1cc(CN2C(=O)N(c3ccc(C4(C(F)(F)F)CC4)cc3)C(=O)C2(C)C)ccn1 [Compound 105, (S)-1-((2-((1-methoxypropan-2-yl)amino)pyridin-4-yl)methyl)-5,5-dimethyl-3-(4-(1-(trifluoromethyl)cyclopropyl)phenyl) imidazolidine-2,4-dione]	≥ 6.30
